Test results: patent publication USRE35053E, “Amines useful in producing pharmaceutically active CNS compounds” (The Upjohn Company, priority 1992, dated 1995)
Structures can show the parent of a compound that is named as a salt.

What was measured:
interleukin-1 = assay: inhibition of interleukin-1 induced T cell proliferation assay; type: cell-based; details: active = >30% at 10^-6 M
Excerpt: The inhibition of interleukin-1 induced T cell proliferation assay, Proc. Nat. […] Since people with arthritis make excess interleukin 1, compounds which inhibit the activity of interleukin 1 are useful in the treatment of arthritis. According to this procedure compounds which inhibit the activity of interleukin 1 greater that 30% at 10^-6 M are considered to be "active".

angiogenesis = assay: fertile egg or chick embryo assay of Folkman (inhibition of angiogenesis / tumor growth); type: in vivo; details: chick embryo; for inhibition of angiogenesis: 50 μg/10 μl with heparin, avascular zone 4 mm or greater
Experimental: According to this procedure compounds which are considered to be "active" (i.e, antiangiogenic) give an avascular zone of 4 mm or greater in some embryos when tested at 50 μg/10 μl in the presence of 50 μg/10 μ of heparin.

[1] = system: induced mucous secretions; assay: inhibition of mucous secretion assay of Johnson; details: for inhibition of mucous secretion: inhibit or block enhancement of induced mucous secretions; for preferred mucous inhibitors per test results: ranking in words
Excerpt: The inhibition of mucous secretion assay of Johnson Int. […] According to this procedure compounds which inhibit or block enhancement of induced mucous secretions when tested are considered to be "active".

[2] = system: conjugated diene formation in rat brain synaptosomes; assay: Conjugated diene formation assay (lipid peroxidation); type: biochemical; details: 100 μM (or less) of the drug, active = 50% inhibition or more
Experimental: The formation of conjugated dienes as assayed by Braughler. […] Bucher, Fund.
Synaptosomal suspension (10 μl) is added to 1 ml of physiological (normal) saline containing 1% Lubrol PX (Sigma Chemical Co. St. Louis, Mo.). […] The reaction is started by the rapid addition of 200 μM ferrous ammonium sulfate prepared in argon-purged water. The sample is rapidly mixed and the change in absorbance at 232nm is followed in a Gilford Response Spectrophotometer equipped with a rapid sampler. Due to the rapidity of the reaction, rapid addition of the iron, rapid mixing and sampling are obligatory to the accuracy of the assay. For best results absorbance readings of one/sec should be started within 5 sec following the addition of iron. The initial linear rate of absorbance change during the first 30 sec of reaction are compared with the rate of a reaction containing all reagents except synaptosomes. The difference in rates is the rate of conjugated diene formation. Rates with drug are compared to rates obtained in the absence of drug and the % inhibition is calculated.

[3] = system: MDA formation in rat brain synaptosomes; assay: Malonyldialdehyde (MDA) Formation Assay (lipid peroxidation); type: biochemical; details: active = 50% inhibition or more at 200 μM or less
Excerpt: The MDA assays of Buege and Aust, Methods in Enzymology, Fleisher and Packer Editors. Academic Press, 1978, New York, Vol LII, p 302-310 and Kohn and Liversedge, J. Pharmacol. Exp. Ther. 82. […] Since iipid peroxidation is involved in the pathophysiology of central nervous system trauma, compounds which inhibit MDA formation are useful in treating the conditions listed below.
While not necessary to determine MDA formation, the above assays have been modified as follows: rat brain synaptosomes are prepared as described in the Example about the conjugated diene assay, except that the final wash of the synaptosomes and final suspension are in physiological (normal) saline in which the pH has been adjusted to 7 0. The synaptosomes are incubated for 10 min at 37° in physiological (normal) saline pH 7.0 (total volume=100 ul) containing; 10 ul synaptosomal suspension. 10% DMSO plus or minus drug. 150 uM Fe^+++ and 50 uM Fe^++. The incubation is started by the rapid addition of iron to the otherwise complete reaction. The iron solutions are prepared fresh as ferric chloride and ferrous ammonium sulfate in argon-purged water. Following the 10 min incubation, the reaction is stopped by the addition of 500 ul ice-cold 12% trichloroacetic acid prepared in 0.5 N hydrochloric acid. Water (300 ul) is then added along with 100 ul of freshly prepared thiobarbituric acid (3.3% in 0.5N sodium hydroxide) and 10 ul of 5mM desferrioxamine. The sample is then heated in a boiling water bath for 20 minutes. The samples are cooled and centrifuged for 15 minutes at 1500 xg and the absorbance of the supernatant fraction is read at 532 nm. The % inhibition of MDA formation is calculated by dividing the absorbance of sample containing drug by the absorbance of samples incubated without drug. Reaction blanks are samples incubated in the absence of iron A compound that inhibits MDA formation by 50% or more at a concentration of 200μM or less is considered "active".

arachidonic acid = assay: Arachidonic Acid Antagonism Assay (AAAA); type: in vivo, mouse (Charles River male CF-1); details: mice; for arachidonic acid antagonism (elevation of LD50 of arachidonic acid): IV, 15 min before sodium arachidonate, outside 95% confidence interval of control LD50
Experimental: While not necessary to determine arachidonic acid antagonism, the above assay has been modified as follows: Charles River male CF-1 mice weighing […] are treated IV with the test compound dissolved in 1.0% Tween-80 and 0.1% hydrochloric acid in distilled water. 0 2 ml total volume. Fifteen minutes later sodium arachidonate (90% pure) in physiological (normal) […] is injected into the tail vein. The LD50 is measured using the Spearman-Karber method with a log dose interval of 0.05 (N-6). Compounds which elevate the LD50 outside of the 95% confidence interval of the control LD50 are considered to be "active".

SMILES | inhibition of interleukin 1 (interleukin-1) | inhibition of angiogenesis (angiogenesis) | inhibition of mucous secretion [1] | inhibition of conjugated diene formation [2] | inhibition of MDA formation [3] | arachidonic acid antagonism (elevation of LD50 of arachidonic acid) (arachidonic acid) | other results
C[C@]12CCC(=O)C=C1CC[C@@H]1C2=CC[C@@]2(C)[C@H]1CC[C@]2(O)C(=O)CN1CCN(c2cc(N3CCOCC3)nc(N3CCOCC3)n2)CC1 [Example 105, 21-[4-(2,6-Bis(4-morpholino)-4-pyrimidinyl)-1-piperazinyl]-17α-hydroxypregna-4,9(11)-diene-3,20-dione dihydrochloride, hydrate] | demonstrate inhibition of interleukin 1 | demonstrate inhibition of angiogenesis | demonstrate such activity | – | – | – | preferred mucous inhibitors per test results [1]: preferred mucous inhibitors
C[C@]12CCC(=O)C=C1CC[C@@H]1C2=CC[C@@]2(C)[C@H]1CC[C@]2(O)C(=O)CN1CCC(O)(c2ccc(C(F)(F)F)cc2)CC1 [Example 5, 17α-Hydroxy-21-[4-hydroxy-4 (4-trifiuoromethyl)phenyl 1-piperidinyl]pregna-4,9(11)-diene-3 20-dione] | – | – | – | demonstrate such activity | – | – | –
C[C@@H]1C[C@H]2[C@@H]3CCC4=CC(=O)C=C[C@]4(C)C3=CC[C@]2(C)[C@H]1C(=O)CN1CCN(c2cc(N3CCOCC3)nc(N3CCOCC3)n2)CC1 [Example 86, 16α-methyl-21-[4-[2,6-bis(4-morpholino)-4-pyrimidinyl]-1-piperazinyl]pregna-1,4,9(11)-triene-3,20-dione] | demonstrate inhibition of interleukin 1 | demonstrate inhibition of angiogenesis | – | demonstrate such activity | demonstrate such activity | – | –
C[C@]12CCC(=O)C=C1CC[C@@H]1C2=CC[C@]2(C)[C@@H](CCN3CCN(c4cc(N5CCCC5)nc(N5CCCC5)n4)CC3)CC[C@@H]12.Cl [Example 104, 21-[4-(2,6-Bis(1-pyrrolidinyl)-4-pyrimidinyl)-1-piperazinyl]pregna-4,9(11)-dien-3-one hydrochloride] | – | demonstrate inhibition of angiogenesis | – | – | demonstrate such activity | – | –
C[C@@H]1C[C@H]2[C@@H]3CCC4=CC(=O)C=C[C@]4(C)[C@H]3[C@H](O)C[C@]2(C)[C@H]1C(=O)CN1CCN(c2cc(N3CCCC3)nc(N3CCCC3)n2)CC1 [Example 84, 11α-hydroxy-16α-methyl-21-[4-[2,6-bis(1-pyrrolidinyl)-4-pyrimidinyl]-1-piperazinyl]pregna-1,4-diene 3,20-dione] | demonstrate inhibition of interleukin 1 | – | – | demonstrate such activity | – | – | –
CCN(CC)c1cc(N2CCN(CC(=O)[C@@]3(O)CC[C@H]4[C@@H]5CCC6=CC(=O)CC[C@]6(C)C5=CC[C@@]43C)CC2)nc(N)n1 [Example 4, 21-[4-[2.Amino-6-(diethylamino)-4-pyrimidinyl]1-piperazinyl]-17α-hydroxypregna-4,9(11)-diene-3,20-dione] | – | – | demonstrate such activity | demonstrate such activity | – | demonstrate arachidonic acid antagonism | –
CS(=O)(=O)O.CS(=O)(=O)O.C[C@@H]1C[C@H]2[C@@H]3CCC4=CC(=O)C=C[C@]4(C)C3=CC[C@]2(C)[C@H]1C(=O)CN1CCN(c2cc(N3CCCC3)nc(N3CCCC3)n2)CC1 [Example 83, 16α-Methyl-21-[4-(2,6-bis(1-pyrrolidinyl)-4-pyrimidinyl]-1-piperazinyl]pregna-1,4,9(11)-triene-3,20-dione dimethane-sulfonate] | demonstrate inhibition of interleukin 1 | demonstrate inhibition of angiogenesis | demonstrate such activity | demonstrate such activity | demonstrate such activity | – | preferred mucous inhibitors per test results [1]: preferred mucous inhibitors
CS(=O)(=O)O.C[C@]12CCC(=O)C=C1CC[C@@H]1C2=CC[C@@]2(C)[C@H]1CC[C@]2(O)C(=O)CN1CCN(c2ccccn2)CC1 [Example 2, 17α-Hydroxy-21-[4-(2-pyridinyl)-1piperazinyl]pregna-4,9(11)-diene-3,20di-one methanesulfonate] | – | – | demonstrate such activity | demonstrate such activity | – | demonstrate arachidonic acid antagonism | % of Embryos with 4 mm or Greater A vascular Zone (angiogenesis; 50 μg/10 μl in the presence of heparin): 85%; preferred mucous inhibitors per test results [1]: preferred mucous inhibitors
C[C@H]1C[C@@H]2C(=CC[C@@]3(C)[C@H]2CC[C@]3(O)C(=O)CN2CCN(c3cc(N4CCCC4)nc(N4CCCC4)n3)CC2)[C@@]2(C)C=CC(=O)C=C12 [Example 47, 17α-hydroxy-6α-methyl-21-[4-[2,6-bis(1-pyrrolidinyl)-4-pyrimidinyl-1-piperazinyl)pregna-1,4,9(11)-triene-3,20-dione,(E)-2-butenodioate salt] | demonstrate inhibition of interleukin 1 | – | – | demonstrate such activity | demonstrate such activity | demonstrate arachidonic acid antagonism | –
CC(CN1CCN(c2cc(N3CCCC3)nc(N3CCCC3)n2)CC1)[C@H]1CC[C@H]2[C@@H]3CCC4=CC(=O)C=C[C@]4(C)[C@H]3CC[C@]12C.CS(=O)(=O)O.O (stereo partly shown) [Example 112, 21-[4-(2,6-Bis(1-pyrrolidinyl)-4-pyrimidinyl)-1-piperazinyl]-20-methylpregna-1,4-dien-3-one methanesulfonate, hydrate] | – | – | – | demonstrate such activity | – | – | –
C[C@]12CCC(=O)C=C1CC[C@@H]1C2=CC[C@@]2(C)[C@H]1CC[C@]2(O)C(=O)CN1CCN(c2cccc(N3CCCC3)n2)CC1 [Example 62, 17α-hydroxy-21-[4-[6-(1-pyrrolidinyl)-2-pyridinyl]-1-piperazinyl]pregna-4,9(11)-diene-3,20-dione(E)-2-butenedioate (1:1) salt] | – | – | – | – | demonstrate such activity | demonstrate arachidonic acid antagonism | % of Control LD50 (arachidonic acid; 100 mg/kg, LD50 of sodium arachidonate): 138%
C[C@]12C=CC(=O)C=C1CC[C@@H]1C2=CC[C@]2(C)[C@@H](C(=O)CN3CCN(c4cc(N5CCCC5)nc(N5CCCC5)n4)CC3)CC[C@@H]12.Cl.Cl [Example 111, 21-[4-(2,6-Bis(1-pyrrolidinyl)-4-pyrimidinyl)-1-piperazinyl]pregna-1,4,9(11)-triene-3,20-dione dihydrochloride] | – | – | – | demonstrate such activity | – | – | –
C[C@@]12C(=CC(=O)C[C@@H]1C#N)CC[C@@H]1C2=CC[C@]2(C)[C@@H](CCN3CCN(c4cc(N5CCCC5)nc(N5CCCC5)n4)CC3)CC[C@@H]12.Cl.Cl.Cl.O [Example 110, 21-[4-(2,6-Bis(1-pyrrolidinyl)-4-pyrimidinyl)-1-piperazinyl]-1α-cyanopregna-4,9(11)-diene-3-one-trihydrochloride, hydrate] | – | – | – | – | demonstrate such activity | – | –
